Source: article PMC9804781, “Identification of a Novel Pseudo‐Natural Product Type IV IDO1 Inhibitor Chemotype” (Angewandte Chemie (International Ed. in English), 2022)

Experiments:
[1] = tested on: Kyn levels in BxPC-3 cells; assay: Manual Kyn assay in BxPC-3 cells (p-DMAB detection), incl. hemin competition; assay type: cell-based; settings: IFN-γ, L-Trp
Description: Mammalian cell lines were maintained at 37°C and 5% CO2 in a humidified atmosphere and sub-cultivated twice a week. All cell lines were tested regularly for mycoplasma contamination and were always free of mycoplasma. BxPC-3 cells (DSMZ#760) were grown in RPMI-1640 medium supplemented with 10% FBS, 2 mM L-glutamine, 1 mM sodium pyruvate, 4.5 g/L glucose, 10 mM HEPES and 1.5 g/L NaHCO3. HeLa cells (DSMZ#57) were cultivated in DMEM supplemented with 10% FBS, 4.5 g/L glucose, 4 mM L-glutamine 1 mM sodium pyruvate, 1% non-essential amino acids, 3.7 g/L NaHCO3. SKOV-3 cells (ATCC#HTB-77) were maintained in modified McCoy’s 5A medium supplemented with 10% FBS, 1.5 mM L-glutamine and 2.2 g/L NaHCO3. […]
For manual testing, BxPC-3, HeLa or SKOV-3 cells (20,000 cells/well, 5,000 cells/well or 6,250 cells/well, respectively) were seeded in 96-well plates (BxPC-3 and HeLa) or 384-well plates (SKOV-3) in medium without phenol red. […]
temperature and centrifuged for 10 min at 1800 x g. Afterwards, an equal volume of freshly prepared 2% (w/v) p-DMAB in glacial acetic acid (Ehrlich reagent) was added prior to measuring the absorbance at 492 nm and 650 nm on the Spark® Multimode Microplate Reader (Tecan, AT).
To determine the Kyn levels, the absorbance of the Kyn-p-DMAB adduct A492 was subtracted by the background absorbance A650 and normalized to the DMSO control. […]

rhIDO1 (holo-IDO1) = target: T1, rhIDO1 (holo-IDO1) (Homo sapiens, UniProt P14902); assay: UV/Vis spectrophotometry of the Soret peak (heme loss); assay type: binding; settings: holo-IDO1, 2 h at 37 °C
T1 construct: His; made in house; host or cells: E. coli
Description: using the ChemiDoc MP Imaging System (Bio-Rad Laboratories, DE). IDO1 protein levels were normalized to the levels of reference protein vinculin.
BxPC-3 cells (10,000 cells/well) were seeded in 96-well plates and incubated for 24 h prior to addition of 50 ng/mL IFN-γ and compounds at indicated concentrations for 48 h. Cells were fixed with 4% paraformaldehyde for 20 min at room temperature followed by permeabilization with 0.5% Triton X-100 for 15 min at room temperature. Afterwards, unspecific binding sites were blocked with 5% non-fat milk in PBS with 0.1% (v/v) Tween-20 (PBS-T) for 60 min at room temperature followed by overnight incubation at 4°C with the primary antibodies. […]
11 µM rhIDO1 was incubated with compounds at indicated concentrations for 60 min at 37°C in 50 mM potassium phosphate buffer (16.9 mM K2HPO4, 33.1 mM, KH2PO4, pH 6.5). The thermal protein stability from 20°C to 90°C (1°C/min) was measured by means of the intrinsic tryptophan/tyrosine fluorescence using the Prometheus™ NT.48 (NanoTemper® Technologies, DE). Melting scans, first derivatives of melting scans and melting temperatures were analyzed using PR.ThermControl software (NanoTemper® Technologies, DE). […]
transparent microplates (UV-STAR®, Greiner AG, AT). Subsequently, absorbance spectra from 250 nm to 550 nm were recorded on the Spark® Multimode Microplate Reader (Tecan, AT). […]

T1 sequence (P14902 whole entry): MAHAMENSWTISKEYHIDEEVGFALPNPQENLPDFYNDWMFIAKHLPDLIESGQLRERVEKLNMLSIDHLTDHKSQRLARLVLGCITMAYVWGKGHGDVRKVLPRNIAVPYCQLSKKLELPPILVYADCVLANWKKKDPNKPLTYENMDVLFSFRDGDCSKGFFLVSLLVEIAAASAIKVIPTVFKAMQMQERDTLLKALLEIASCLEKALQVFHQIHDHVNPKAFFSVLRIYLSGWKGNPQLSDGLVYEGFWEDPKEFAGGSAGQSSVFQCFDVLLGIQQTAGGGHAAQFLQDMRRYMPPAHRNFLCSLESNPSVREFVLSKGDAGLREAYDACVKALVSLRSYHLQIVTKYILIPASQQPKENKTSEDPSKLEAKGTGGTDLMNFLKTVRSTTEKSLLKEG

CCOC(=O)C1=CC[C@](C(=O)OC)(c2cc3ccccc3n2C)N(S(=O)(=O)c2ccc(C)cc2)[C@@H]1C(=O)OC(C)(C)C [Compound 3d]
effect of free hemin on potency in the Kyn assay ([1]; BxPC-3, hemin, 600 nM apoxidole-1, 48 h): reduced the potency | activity in Kyn assay in BxPC-3 cells ([1]; BxPC-3 cells, 48 h, p-DMAB): completely inactive | effect on Soret peak at 404 nm (heme loss) (rhIDO1 (holo-IDO1)): reduced the Soret peak
